Experimental data as given in ChEMBL document CHEMBL3507680, “University of Dundee, Gates Library screen for HepG2 cell viability”.

Assay: Human HepG2 cell viability assay in 384 well format
Format: toxicity, cell-based
Set-up: dose 125 nL, time 70.5 hour; concentration not given beside the values
Conditions: HepG2 cells, read-out: Inhibition

SMILES	cytotoxicity at 70.5 h [%]
Cc1cc(NC(C)Cc2cccnc2)n2nccc2n1 (centres undefined)	-12
CN(CCc1ccccc1)Cc1cc(C(=O)N2CCSCC2)no1	-3.85
CCn1nccc1C(=O)N1CCCCC1CCc1ccc(O)cc1 (centres undefined)	11
CCc1ccc(CN(C)C(=O)C(c2ccccc2F)N(C)C)nc1 (centres undefined)	-7.7
Cc1nc2c(c(N3CCC(O)(Cn4ccnc4)CC3)n1)CCNCC2	-1.99
Cc1nnsc1CNC(=O)c1ccc2c(c1)nc(N1CCOCC1)n2C	-12.9
CSCC(=O)N1CCc2[nH]nc(-c3ccc4c(c3)OCO4)c2C1	0.0699
COCc1noc(Cn2ccc3ccccc3c2=O)n1	-5.61
Cc1cccc(C(=O)N2CCCCC2c2ccc(CN(C)C)cc2)c1 (centres undefined)	-8.71
O=C(NC1CCCC1)N1C[C@H]2CN(c3ccncc3)C[C@@]2(C(=O)O)C1	14.8
O=C(NCc1cccc(F)c1F)c1cc(CN2CCCC(O)C2)on1 (centres undefined)	4.85
COCCN1CCCC2(CCN(c3cccc(C(F)(F)F)n3)C2)C1=O (centres undefined)	-9.08
Cc1nc2c(c(=O)[nH]1)CN(C(=O)CC[C@@H]1CCCN3CCCC[C@H]13)C2	24.5
COC1CCN(S(=O)(=O)N2C[C@H](c3ccccc3)[C@@H](N)C2)CC1	-2.79
COc1cc(C(=O)NCC2CCCN(Cc3ccco3)C2)ccn1 (centres undefined)	16.1
Cc1nn(C)c2ncnc(N3CCC(O)(CN4CCCC4)CC3)c12	-6.34
CC[S+]([O-])CCc1nc(CC(C)C)nn1-c1ccc2c(c1)OCCO2 (centres undefined)	5.5
COc1ccccc1N1CCN(C(=O)CSC(C)C)C(C)C1 (centres undefined)	-3.04
Cc1noc(C)c1CCCNC(=O)C1CCN(C(C)C)CC1	-7.17
O=C(O)CC[C@@H]1CN(c2ncnc3[nH]ccc23)CC[C@@H]1N1CCOCC1	-4.6
Cc1nc2ncccn2c1C(=O)N1CCc2[nH]cnc2C1	-1.79
Cn1cc(CN2CCC(Cn3cc(-c4ccccc4)nn3)CC2)cn1	-4.28
O=S(=O)(c1cccnc1)N1CCCCC1CCN1CCOCC1 (centres undefined)	23.1
Cn1ncc2c1NC(=O)CC2c1cc2c(cc1Cl)OCO2 (centres undefined)	17.7
Cc1nc(CN2CCC3(CCCO3)CCC2=O)no1 (centres undefined)	-3.41
CN(CCc1cn[nH]c1)Cc1nc(Cc2cccc(C(F)(F)F)c2)no1	3.03
Cc1ccc(Oc2ncccc2CNC2CCOCC2)cn1	-7.51

SMILES	cytotoxicity at 70.5 h [%]
C[C@@H]1CN(c2ccc(Cl)cn2)C[C@@]1(O)C1CC1	-3.66
Cc1n[nH]c(C)c1CCC(=O)NCC1CCOc2ccccc2C1 (centres undefined)	12.2
O=C(NCC1COCCO1)c1csc(Cc2ccccc2)n1 (centres undefined)	-4.7
Cn1ncc2c(NC3CCCN(C(=O)C4CC4)C3)nc(C(C)(C)C)nc21 (centres undefined)	2.96
Cc1ccc(C(=O)N(Cc2cccnc2)C[C@@H]2CCC(=O)N2)s1	28
CO[C@H]1[C@@H]2CC[C@H]1CN(c1nc(C)nc3sccc13)C2	6.45
COc1cccc2c1OCC(C(=O)N1Cc3ccccc3C1)C2 (centres undefined)	-1.1
CCCc1cc(CN(C)C2CSCCSC2)n[nH]1	-6.5
CN(C)C(=O)CCN1CC(c2ccccc2)(c2ccccc2)CCC1=O	4.06
COCc1noc(-c2ccc(N(C)Cc3nccs3)nc2)n1	-6.18
O=C1CC2(CCN(C(=O)c3cccc(Cl)c3)CC2)CN1	-7.17
CCC(=O)N1CCN(S(=O)(=O)c2cccc(F)c2)[C@H]2CS(=O)(=O)C[C@H]21	-13.7
Cc1cccc(C2CCCN(C(=O)CN3CCOC3=O)C2)c1 (centres undefined)	-17.6
CNc1ccnc(N(C)Cc2cc(-c3cccs3)n[nH]2)n1	32.5
CC1=CC[C@@H]2CN(C(=O)c3ccc(-c4cc[nH]n4)cc3)C[C@@H]2C1	0.519
CCCn1ccnc1CN1CC[C@@H](NC(=O)c2cccnc2)[C@H](O)C1	-16.3
COc1ccc(C(O)C(=O)N2CCC(c3nccn3C(C)C)CC2)cc1 (centres undefined)	28.1
CCN(Cc1ccccc1)C(=O)CCN1CC(O)C1	-16.3
CNCc1cn(CC2CCN(Cc3cccs3)CC2)nn1	22.5
CN1CCC(N(C)CCC(=O)N2CCC(OCc3ccccc3)CC2)C1 (centres undefined)	29.2
CCOCC(=O)N1CCC(c2nc(-c3cccnn3)no2)CC1	-11.6
Cc1nc(CN(C)CC2CCCN(CCc3ccc(Cl)cc3)C2)no1 (centres undefined)	0.0181
CC(C)n1cc(CN(C)C[C@@H]2CCCN3CCCC[C@H]23)cn1	-6.94
COCCN1C(=O)[C@H]2CC[C@@H]1CN(C(=O)COc1ccc(F)c(Cl)c1)C2	-9.65
CCCc1cc(NCc2nc(COC)no2)n2nccc2n1	-0.144
CCC(CO)N(Cc1ccsc1)Cc1cccc(O)c1 (centres undefined)	-0.682
NC(=O)CCC1CCCN(Cc2cnc(N3CCCCC3)nc2)C1 (centres undefined)	-3.37

SMILES	cytotoxicity at 70.5 h [%]
CC(CO)Nc1ccc(-c2nc(Cc3ccc(F)cc3)no2)cn1 (centres undefined)	-2.07
Cc1cc(CC(=O)N2CCN(C)[C@@H]3CS(=O)(=O)C[C@@H]32)ccc1F	-4.31
Cc1cc(C)n(CCCN(C)Cc2cn[nH]c2-c2ccc(F)cc2)n1	-9.49
COc1ccc(C(=O)NCc2cccnc2N2CCOCC2)o1	-0.423
O=C(O)c1cc2n(n1)CCCN(C(=O)CCc1c[nH]c3ccccc13)C2	-16.4
CC(=O)c1cc(CN2CCCC23CCN(c2ccccn2)CC3)cs1	-19.2
Cc1cc(C2CCC2)nc(NCC(C)(C)N2CCCC2)n1	-16.9
COc1cccc2c1OCC(CNC(=O)Cn1ccnc1C)C2 (centres undefined)	-0.227
C/C=C(\C)CN1C[C@H](NC(=O)c2cc[nH]c2C)[C@@H](C2CC2)C1	10.6
CC(C)n1cc(CN(Cc2ccsc2)CC2CCCO2)cn1 (centres undefined)	-1.43
Cc1nc(O)cc(CN2C[C@H](NS(=O)(=O)N(C)C)[C@@H](C3CC3)C2)n1	-3.51
CNc1cc(C(=O)N2CCC3(CC2)Nc2ccccc2NC3=O)ccn1	-4.39
O=C(NCCc1ccc(Cl)cc1)c1coc(CN2CCOCC2)c1	-5.77
O=C(CCN1CCCC1)N1CC[C@@H](c2ccc3ccccc3c2)[C@H](O)C1	-21
CCCc1nnc2sc(C3CCS(=O)(=O)CC3)nn12	-10.2
CC(=O)N1CCN(C(=O)c2snnc2C)[C@H]2CS(=O)(=O)C[C@H]21	-6.51
COc1cc(C)ccc1OCCN1CC[C@@]2(O)CCNC[C@H]2C1	-4.21
CNc1nc2c(c(C(=O)N3CCCC3)n1)CN(C(=O)c1cccs1)CC2	5.33
CCC[C@H]1CN(S(C)(=O)=O)C[C@@H]1NC(=O)Cc1ccc(F)cc1C	-1.4
O=c1[nH]nc(CCCN2CCOCC2)n1Cc1cccc(F)c1	-2.64
Cc1nc(CCNC(=O)CC2CCN(C(C)C)CC2)sc1Cl	45.7
COc1ccc(CN2CCSCC2)c(OC)c1	-6.31
Cc1cccc2cc(C(=O)N3CCSCC3)n(C)c12	-3.37
OCCCc1nncn1-c1cccc(C(F)(F)F)c1	-1.23
O=C(c1ccc(=O)[nH]c1)N1CCCC2(C=Cc3ccccc3O2)CC1 (centres undefined)	-3.22
